The text below walks through data of patent US9018414B2, “Substituted 3-phenylpropionic acids and the use thereof” (Bayer Intellectual Property GmbH, priority 2009, dated 2015).

Experiment [1] addresses T1, haem-containing recombinant soluble guanylate cyclase (sGC) (Rattus norvegicus, UniProt P20595).
T1 construct: made in house; host or cells: Sf9 insect cells (baculovirus)
T1 sequence (P20595 1-619): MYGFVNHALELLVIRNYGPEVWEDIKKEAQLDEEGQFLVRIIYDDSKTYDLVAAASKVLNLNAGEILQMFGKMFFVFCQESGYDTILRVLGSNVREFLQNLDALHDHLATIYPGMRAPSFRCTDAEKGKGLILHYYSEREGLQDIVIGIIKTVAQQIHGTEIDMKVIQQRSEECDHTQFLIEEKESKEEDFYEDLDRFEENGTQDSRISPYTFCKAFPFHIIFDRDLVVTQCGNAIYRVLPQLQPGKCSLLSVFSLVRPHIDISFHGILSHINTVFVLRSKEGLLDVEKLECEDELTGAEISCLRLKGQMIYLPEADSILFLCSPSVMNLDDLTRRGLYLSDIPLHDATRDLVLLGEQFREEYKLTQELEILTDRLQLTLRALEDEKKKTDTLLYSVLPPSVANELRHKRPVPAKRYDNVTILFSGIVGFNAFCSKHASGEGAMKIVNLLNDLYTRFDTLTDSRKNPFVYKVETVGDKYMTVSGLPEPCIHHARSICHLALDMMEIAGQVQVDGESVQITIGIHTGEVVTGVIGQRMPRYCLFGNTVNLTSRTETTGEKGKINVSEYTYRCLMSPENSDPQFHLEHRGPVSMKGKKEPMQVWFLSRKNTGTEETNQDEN
T1 sequence (P19686 1-690 partner): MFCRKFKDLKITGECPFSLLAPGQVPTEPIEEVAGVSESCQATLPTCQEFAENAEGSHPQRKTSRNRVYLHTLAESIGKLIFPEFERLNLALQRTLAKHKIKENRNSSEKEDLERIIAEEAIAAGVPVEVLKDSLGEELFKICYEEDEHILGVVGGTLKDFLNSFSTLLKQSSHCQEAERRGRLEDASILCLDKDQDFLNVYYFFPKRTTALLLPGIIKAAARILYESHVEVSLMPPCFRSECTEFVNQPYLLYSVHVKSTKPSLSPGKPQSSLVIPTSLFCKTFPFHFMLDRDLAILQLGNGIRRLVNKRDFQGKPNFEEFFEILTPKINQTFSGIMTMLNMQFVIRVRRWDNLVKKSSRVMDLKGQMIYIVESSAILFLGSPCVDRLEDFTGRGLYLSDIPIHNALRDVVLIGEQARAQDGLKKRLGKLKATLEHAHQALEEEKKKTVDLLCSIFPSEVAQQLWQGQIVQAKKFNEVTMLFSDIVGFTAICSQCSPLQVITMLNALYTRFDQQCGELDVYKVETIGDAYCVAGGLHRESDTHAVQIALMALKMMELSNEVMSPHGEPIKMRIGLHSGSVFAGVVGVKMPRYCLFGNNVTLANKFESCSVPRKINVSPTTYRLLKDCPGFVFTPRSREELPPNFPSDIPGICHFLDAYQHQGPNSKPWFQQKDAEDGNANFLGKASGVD
Put plainly: Stimulation of recombinant soluble guanylate cyclase (sGC) in vitro, haem-containing enzyme. It is filed as biochemical. The note with it: for Effect of combination with the NO donor DEA/NO on sGC stimulation: haem-containing sGC. Here is the method: (§1) Investigations on the stimulation of recombinant soluble guanylate cyclase (sGC) by the compounds according to the invention with and without sodium nitroprusside, and with and without the haem-dependent sGC inhibitor 1H-1,2,4-oxadiazolo-(4,3a)-quinoxalin-1-one (ODQ) are carried out by the method described in detail in the following reference: M. Hoenicka, E. M. Becker, H. Apeler, T. Sirichoke, H. Schroeder, R. Gerzer and J.-P. Stasch, “Purified soluble guanylyl cyclase expressed in a baculovirus/Sf9 system: Stimulation by YC-1, nitric oxide, and […]”, J. Mol. Med. 77 (1999), 14-23. The haem-free guanylate cyclase is obtained by adding Tween 20 to the sample buffer (0.5% in the final concentration).
(§2) The activation of sGC by a test substance is reported as x-fold stimulation of the basal activity.

The target in experiment [2] is T2, soluble guanylate cyclase (sGC) (Rattus norvegicus, UniProt P20595).
T2 construct: made in house; host or cells: Sf9 insect cells (baculovirus)
T2 sequence (P20595 1-619): T1 sequence (P20595 1-619)
T2 sequence (P19686 1-690 partner): T1 sequence (P19686 1-690 partner)
The experiment is described as follows: Stimulation of sGC enzyme activity (PPi detection, luciferase luminescence). The note with it: for EC50: EC50 = concentration at 50% of maximum efficacy, read-out: Activating action at the sGC enzyme in vitro, EC50; for Activating action at the sGC enzyme in vitro, MEC: MEC = minimal effective concentration. It is filed as biochemical. The protocol:
Soluble guanylate cyclase (sGC) converts on stimulation GTP into cGMP and pyrophosphate (PPi). PPi is detected with the aid of the assay described below. The signal produced in the assay increases as the reaction progresses and serves as a measure of the sGC enzyme activity under the given stimulation.
To carry out the assay, 29 μl of enzyme solution [0-10 nM soluble guanylate cyclase (prepared according to Hönicka et al., J. Mol. Med. 77, 14-23 (1999)) in 50 mM TEA, 2 mM MgCl2, 0.1% BSA (fraction V), 0.005% Brij®, pH 7.5] are initially introduced into a microplate, and 1 μl of the substance to be tested (as a serially diluted solution in DMSO) is added. The mixture is incubated at room temperature for 10 min. Then 20 μl of detection mix [1.2 nM Firefly Luciferase (Photinus pyralis luciferase, Promega), 29 μM dehydroluciferin (prepared according to Bitler & McElroy, Arch. Biochem. Biophys. 72, 358 (1957)), 122 μM luciferin (Promega), 153 μM ATP (Sigma) and 0.4 mM DTT (Sigma) in 50 mM TEA, 2 mM MgCl2, 0.1% BSA (fraction V), 0.005% Brij®, pH 7.5] are added. The enzyme reaction is started by adding 20 μl of substrate solution [1.25 mM guanosine 5′-triphosphate (Sigma) in 50 mM TEA, 2 mM MgCl2, 0.1% BSA (fraction V), 0.005% Brij®, pH 7.5] and measured continuously in a luminometer. The extent of the stimulation by the substance to be tested can be determined relative to the signal of the unstimulated reaction.
The activation of haem-free guanylate cyclase is examined by addition of 25 μM of 1H-1,2,4-oxadiazolo[4,3-a]quinoxalin-1-one (ODQ) to the enzyme solution and subsequent incubation for 30 minutes, and compared to the stimulation of the native enzyme.

Experiment [3] has as its target T3, haem-free recombinant soluble guanylate cyclase (sGC) (Rattus norvegicus, UniProt P20595).
T3 construct: made in house; host or cells: Sf9 insect cells (baculovirus)
T3 sequence (P20595 1-619): T1 sequence (P20595 1-619)
T3 sequence (P19686 1-690 partner): T1 sequence (P19686 1-690 partner)
Put plainly: Stimulation of recombinant soluble guanylate cyclase (sGC) in vitro, haem-free enzyme. It counts as biochemical. The protocol:
as §1, §2

The test system of experiment [4] is recombinant guanylate cyclase reporter cell line. Put plainly: Action at recombinant guanylate cyclase reporter cell line (CHO reporter cell). It is filed as cell-based. The note with it: MEC = minimal effective concentration; read-out: sGC-activating activity in the CHO reporter cell in vitro, MEC. The protocol: The cellular action of the compounds according to the invention is determined at a recombinant guanylate cyclase reporter cell line, as described in F. Wunder et al., Anal. Biochem. 339, 104-112 (2005).

Structures are written as SMILES.

For `C[C@H]([C@H](C(=O)Nc1cc(C[C@H](C)C(=O)O)ccc1Cl)c1ccc(Cl)cc1)C(F)(F)F` [Example 17, (+)-(2S)-3-(4-Chloro-3-{[(2S,3R)-2-(4-chlorophenyl)-4,4,4-trifluoro-3-methylbutanoyl]amino}-phenyl)-2-methylpropanoic acid], the “Stimulation (x-fold) of recombinant sGC, haem-containing sGC, +0.01 μM DEA/NO” value was determined as 9.6 ± 0.8 x-fold in experiment [1] (0.01 μM test compound); 8.8 ± 1.2 x-fold in experiment [1] (0.1 μM test compound); 9.8 ± 1.2 x-fold in experiment [1] (1.0 μM test compound); 10.7 ± 1.0 x-fold in experiment [1] (10 μM test compound); 11.4 ± 1.2 x-fold in experiment [1] (100 μM test compound). For the same molecule, the “Stimulation (x-fold) of recombinant sGC, haem-containing sGC, +10 μM ODQ” value in experiment [1] (0.01 μM test compound) is 4.9 ± 1.2 x-fold; in experiment [1] (0.1 μM test compound), 5.3 ± 1.3 x-fold; in experiment [1] (1.0 μM test compound), 4.5 ± 1.1 x-fold; in experiment [1] (10 μM test compound), 8.3 ± 1.4 x-fold; in experiment [1] (100 μM test compound), 15.0 ± 2.0 x-fold. The “Stimulation (x-fold) of recombinant sGC, haem-containing sGC, basal” value in experiment [1] (0.01 μM test compound) came out at 0.7 ± 0.2 x-fold; in experiment [1] (0.1 μM test compound), 0.6 ± 0.1 x-fold; in experiment [1] (1.0 μM test compound) it was 0.6 ± 0.1 x-fold; in experiment [1] (10 μM test compound), 1.8 ± 0.3 x-fold; in experiment [1] (100 μM test compound) it was 4.9 ± 0.7 x-fold. Also, the “Effect of combination with the NO donor DEA/NO on sGC stimulation” value in experiment [1] is “no synergistic effect”. Further, in experiment [2], the EC50 was determined as 130 nM. In addition, the “Activating action at the sGC enzyme in vitro, MEC” value in experiment [2] turned out to be 7 nM. The “Stimulation (x-fold) of recombinant sGC, haem-free sGC, basal” value was 1.7 ± 0.2 x-fold in experiment [3] (0.01 μM test compound); 2.0 ± 0.3 x-fold in experiment [3] (0.1 μM test compound); 4.1 ± 0.3 x-fold in experiment [3] (1.0 μM test compound); 22.9 ± 1.8 x-fold in experiment [3] (10 μM test compound); 33.5 ± 3.3 x-fold in experiment [3] (100 μM test compound). The minimal effective concentration in experiment [4] is 0.0048 µM.

With `C[C@H]([C@H](C(=O)Nc1cc(CCC(=O)O)ccc1Cl)c1ccc(Cl)cc1)C(F)(F)F` [Example 15, (+)-3-(4-Chloro-3-{[(2S,3R)-2-(4-chlorophenyl)-4,4,4-trifluoro-3-methylbutanoyl]amino}phenyl)-propanoic acid], the “Stimulation (x-fold) of recombinant sGC, haem-containing sGC, +0.01 μM DEA/NO” value in experiment [1] (0.01 μM test compound) was 5.9 ± 0.7 x-fold; in experiment [1] (0.1 μM test compound) it was 7.4 ± 0.8 x-fold; in experiment [1] (1.0 μM test compound) it was 8.5 ± 0.7 x-fold; in experiment [1] (10 μM test compound), 11.5 ± 0.9 x-fold; in experiment [1] (100 μM test compound), 45.9 ± 3.1 x-fold. Also, the “Stimulation (x-fold) of recombinant sGC, haem-containing sGC, +10 μM ODQ” value in experiment [1] (0.01 μM test compound) amounted to 4.6 ± 0.8 x-fold; in experiment [1] (0.1 μM test compound) it was 4.5 ± 0.6 x-fold; in experiment [1] (1.0 μM test compound) it was 4.8 ± 0.8 x-fold; in experiment [1] (10 μM test compound), 16.3 ± 1.3 x-fold; in experiment [1] (100 μM test compound) it was 97.3 ± 7.7 x-fold. Further, the “Stimulation (x-fold) of recombinant sGC, haem-containing sGC, basal” value in experiment [1] (0.01 μM test compound) is 1.1 ± 0.1 x-fold; in experiment [1] (0.1 μM test compound), 1.0 ± 0.1 x-fold; in experiment [1] (1.0 μM test compound) it was 0.9 ± 0.1 x-fold; in experiment [1] (10 μM test compound), 3.1 ± 0.3 x-fold; in experiment [1] (100 μM test compound), 31.6 ± 2.6 x-fold. Also, the “Effect of combination with the NO donor DEA/NO on sGC stimulation” value in experiment [1] is “no synergistic effect”. Further, the EC50 in experiment [2] stood at 290 nM. Also, in experiment [2], the “Activating action at the sGC enzyme in vitro, MEC” value came out at 10 nM. In addition, the “Stimulation (x-fold) of recombinant sGC, haem-free sGC, basal” value in experiment [3] (0.01 μM test compound) is given as 1.7 ± 0.3 x-fold; in experiment [3] (0.1 μM test compound), 1.8 ± 0.2 x-fold; in experiment [3] (1.0 μM test compound), 3.0 ± 0.5 x-fold; in experiment [3] (10 μM test compound), 17.9 ± 3.1 x-fold; in experiment [3] (100 μM test compound), 40.3 ± 6.6 x-fold. In addition, in experiment [4], the minimal effective concentration worked out at 0.01 µM.

In general, EC50 refers to the concentration at which the effect is half-maximal.
